# Numbers after ± are expanded uncertainties.
# Conditions: for thermal diffusivity: Optical interferometry; for speed of sound: Light diffraction method
smiles,measurement,setting,value
CCCCC [pentane],thermal diffusivity,"306.16 K, Liquid",7.18e-08 ± 3.7e-09 m2/s
same,speed of sound,"308.14 K, Liquid",963.73 ± 5 m/s
same,speed of sound,"318.45 K, Liquid",915.77 ± 4.7 m/s
same,thermal diffusivity,"323.16 K, Liquid",6.84e-08 ± 3.6e-09 m2/s
same,speed of sound,"328.23 K, Liquid",866.06 ± 4.5 m/s
same,speed of sound,"338.02 K, Liquid",815.68 ± 4.2 m/s
same,thermal diffusivity,"338.39 K, Liquid",6.42e-08 ± 3.3e-09 m2/s
same,speed of sound,"348.32 K, Liquid",765.39 ± 4 m/s
same,speed of sound,"348.68 K, Gas",189.16 ± 1.2 m/s
same,thermal diffusivity,"353.16 K, Liquid",6.19e-08 ± 3.2e-09 m2/s
same,thermal diffusivity,"358.13 K, Liquid",6.07e-08 ± 3.2e-09 m2/s
same,speed of sound,"358.22 K, Gas",187.01 ± 1.2 m/s
same,speed of sound,"359.03 K, Liquid",715.2 ± 3.7 m/s
same,thermal diffusivity,"362.37 K, Liquid",5.91e-08 ± 3.1e-09 m2/s
same,speed of sound,"367.9 K, Gas",185.11 ± 1.2 m/s
same,thermal diffusivity,"368.18 K, Liquid",5.79e-08 ± 3e-09 m2/s
same,speed of sound,"368.31 K, Liquid",667.88 ± 3.5 m/s
same,thermal diffusivity,"373.47 K, Liquid",5.74e-08 ± 3e-09 m2/s
same,speed of sound,"377.79 K, Gas",183.06 ± 1.1 m/s
same,thermal diffusivity,"378.2 K, Liquid",5.69e-08 ± 3e-09 m2/s
same,speed of sound,"379.04 K, Liquid",618.28 ± 3.2 m/s
same,thermal diffusivity,"383.42 K, Liquid",5.53e-08 ± 2.9e-09 m2/s
same,thermal diffusivity,"388.15 K, Liquid",5.45e-08 ± 2.8e-09 m2/s
same,speed of sound,"388.18 K, Gas",178.8 ± 1.1 m/s
same,speed of sound,"388.52 K, Liquid",571.45 ± 3 m/s
same,thermal diffusivity,"393.32 K, Liquid",5.4e-08 ± 2.8e-09 m2/s
same,thermal diffusivity,"396.29 K, Liquid",5.35e-08 ± 2.8e-09 m2/s
same,speed of sound,"398.16 K, Liquid",529.46 ± 2.8 m/s
same,speed of sound,"398.34 K, Gas",174.99 ± 1.1 m/s
same,thermal diffusivity,"399.16 K, Liquid",5.24e-08 ± 2.7e-09 m2/s
same,thermal diffusivity,"403.33 K, Liquid",5.16e-08 ± 2.7e-09 m2/s
same,speed of sound,"406.96 K, Liquid",483.6 ± 2.6 m/s
same,speed of sound,"408.14 K, Gas",169.99 ± 1.1 m/s
same,thermal diffusivity,"408.63 K, Liquid",5.12e-08 ± 2.7e-09 m2/s
same,thermal diffusivity,"413.33 K, Liquid",5.01e-08 ± 2.6e-09 m2/s
same,speed of sound,"417.94 K, Liquid",428.66 ± 2.3 m/s
same,speed of sound,"418.17 K, Gas",162.61 ± 1.1 m/s
same,thermal diffusivity,"418.39 K, Liquid",4.93e-08 ± 2.6e-09 m2/s
same,thermal diffusivity,"423.55 K, Gas",2.31e-07 ± 6.9e-09 m2/s
same,thermal diffusivity,"423.61 K, Liquid",4.84e-08 ± 2.5e-09 m2/s
same,thermal diffusivity,"428.12 K, Gas",2.14e-07 ± 6.4e-09 m2/s
same,speed of sound,"428.17 K, Gas",155.41 ± 1 m/s
same,thermal diffusivity,"428.17 K, Liquid",4.69e-08 ± 2.4e-09 m2/s
same,speed of sound,"428.38 K, Liquid",382.43 ± 2.1 m/s
same,thermal diffusivity,"433.15 K, Gas",1.92e-07 ± 5.8e-09 m2/s
same,speed of sound,"433.19 K, Gas",150.86 ± 1 m/s
same,thermal diffusivity,"433.29 K, Liquid",4.58e-08 ± 2.4e-09 m2/s
same,thermal diffusivity,"436.13 K, Gas",1.77e-07 ± 5.3e-09 m2/s
same,thermal diffusivity,"436.19 K, Liquid",4.49e-08 ± 2.3e-09 m2/s
same,speed of sound,"438.21 K, Gas",146.71 ± 1 m/s
same,speed of sound,"438.23 K, Liquid",327.33 ± 1.8 m/s
same,thermal diffusivity,"438.87 K, Gas",1.64e-07 ± 4.9e-09 m2/s
same,thermal diffusivity,"439.21 K, Liquid",4.43e-08 ± 2.3e-09 m2/s
same,thermal diffusivity,"442.09 K, Gas",1.49e-07 ± 4.5e-09 m2/s
same,thermal diffusivity,"442.35 K, Liquid",4.38e-08 ± 2.3e-09 m2/s
same,speed of sound,"443.15 K, Gas",140.85 ± 0.98 m/s
same,thermal diffusivity,"445.16 K, Liquid",4.34e-08 ± 2.3e-09 m2/s
same,thermal diffusivity,"445.19 K, Gas",1.35e-07 ± 4.1e-09 m2/s
same,speed of sound,"447.95 K, Gas",136.18 ± 0.96 m/s
same,thermal diffusivity,"448.08 K, Liquid",4.2e-08 ± 2.2e-09 m2/s
same,thermal diffusivity,"448.25 K, Gas",1.2e-07 ± 3.6e-09 m2/s
same,speed of sound,"448.62 K, Liquid",267.2 ± 1.5 m/s
same,thermal diffusivity,"451.23 K, Gas",1.08e-07 ± 3.2e-09 m2/s
same,thermal diffusivity,"451.38 K, Liquid",4.08e-08 ± 2.1e-09 m2/s
same,speed of sound,"453.26 K, Gas",130.15 ± 0.93 m/s
same,thermal diffusivity,"454.03 K, Gas",9.78e-08 ± 2.9e-09 m2/s
same,thermal diffusivity,"455.2 K, Liquid",3.84e-08 ± 2e-09 m2/s
same,thermal diffusivity,"457.04 K, Gas",8.48e-08 ± 2.5e-09 m2/s
same,speed of sound,"457.87 K, Liquid",209.66 ± 1.3 m/s
same,speed of sound,"458.28 K, Gas",123.99 ± 0.91 m/s
same,thermal diffusivity,"458.4 K, Liquid",3.55e-08 ± 1.8e-09 m2/s
same,thermal diffusivity,"460.05 K, Gas",7.23e-08 ± 2.2e-09 m2/s
same,thermal diffusivity,"460.1 K, Liquid",3.37e-08 ± 1.8e-09 m2/s
same,thermal diffusivity,"462.08 K, Gas",5.64e-08 ± 1.7e-09 m2/s
same,speed of sound,"463.16 K, Gas",116.39 ± 0.88 m/s
same,speed of sound,"463.27 K, Liquid",170.65 ± 1.1 m/s
same,thermal diffusivity,"463.41 K, Liquid",3.04e-08 ± 1.6e-09 m2/s
same,thermal diffusivity,"464.04 K, Gas",4.16e-08 ± 1.2e-09 m2/s
same,thermal diffusivity,"466.12 K, Gas",3.45e-08 ± 1e-09 m2/s
same,speed of sound,"466.14 K, Liquid",145.22 ± 1 m/s
same,thermal diffusivity,"466.37 K, Liquid",2.59e-08 ± 1.3e-09 m2/s
same,speed of sound,"469.33 K, Liquid",111.31 ± 0.89 m/s

# Source: the NIST ThermoML archive (doi:10.1007/s10765-014-1718-x)
